Measured values published in patent US20250197864A1, “LNCRNA TRANSCRIPTS IN MELANOMAGENESIS” (The Regents of the University of California, priority 2021, published 2025).

What was measured:
[1] = test system: D04 melanoma cell line; assay: Cell viability assay (ATP quantitation); assay type: cell-based, human; conditions: 50 nM, 5 days (120 hrs), vs non-targeting control
Protocol: (§1) EsiRNA, siRNA and ASO GapmeRs were transfected in a final concentration of 50 nM unless mentioned otherwise and the transfection reagent Lipofectamine 3000 (2 ul/ml) was added according to the manufacturer's instructions.
(§2) Dependent on cell doubling time, 0.7-2×10^^3 cells were seeded in 96 well plates. 1 day after seeding cells were incubated in media with oligonucleotide concentration and/or MEKi and transfection reagent. 3 (synergy experiments) or 5 (solely ASO) days after transfection Total luminescence was measured on the SynergyHT plate reader (BioTek) using Gen5 software.

[2] = test system: MM415 melanoma cell line; assay: Cell viability assay (ATP quantitation); assay type: cell-based, human; conditions: 50 nM, 5 days (120 hrs), vs non-targeting control
Protocol: as §1, §2

[3] = test system: melanoma cell lines; assay: Cell viability assay (ATP quantitation), melanoma panel; assay type: cell-based, human; conditions: 50 nM oligonucleotide, 72 hours, vs non-targeting pooled siRNA
Excerpt: Human melanoma cell line VMM39 was purchased from American Type Culture Collection (ATCC). Human melanoma cell lines D04, MM415, WM1366, WM3629, WM3211, Sk-Mel-2 and Sk-Mel-28 were a generous gift from Boris Bastian at the University of California, San Francisco. Primary human melanoma cell line Hs852.T was purchased from the Cell Culture Core Facility (CCCF) at the University of California, San Francisco. Primary human melanoma cell line AV5 was obtained from metastasis of a melanoma patient. All experimental protocols were approved by UCSF Human Research Protection Program Institutional Review Board (IRB #12-0948), all patients signed informed consent, and methods were carried out in accordance with relevant guidelines and regulations. Resistant cell lines DO4RM, MM415RM, Sk-Mel-2RM and WM3629RM were established as previously described. [Sanlorenzo, M. et al., The lincRNA MIRAT binds to IQGAPI and modulates the MAPK pathway in NRAS mutant melanoma. Sci Rep 8, 10902 (2018).] Primary human melanocytic cell lines (PHM) from infant foreskin of five healthy donors were available in our cell repository and pooled. […]
Dependent on cell doubling time, 0.7-2×10^^3 cells were seeded in 96 well plates. […] 3 (synergy experiments) or 5 (solely ASO) days after transfection Total luminescence was measured on the SynergyHT plate reader (BioTek) using Gen5 software.

[4] = test system: AC004540.4 (TRASH) in D04 cells; assay: MEK-inhibitor-induced upregulation, RT-qPCR; assay type: cell-based, human; conditions: 72 hours, vs DMSO, normalized to GAPDH
Protocol: (§3) TRIzol, Phenol:chloroform:isoamyl alcohol (125:24:1) or NucleoSpin RNA kit (TaKaRa) was used for extracting Total RNA from cells and tissues according to the manufacturer's instructions. Total RNA was quantified by NanoDrop ND-1000 (Thermo Scientific) or Quibit 4 (Thermo Fisher). 50 ng or RNA was reverse transcribed using the cDNA synthesis and gDNA removal QuantiTect Reverse Transcription Kit. Real time PCR was performed using the iTaq Universal SYBR Green Supermix, 10 ng (20 ng for RIP Assay) of cDNA and on a QuantStudio™ 5 Real-Time PCR System or a 7500 fast real time PCR system. Relative gene expression was calculated using the comparative Ct method, normalized to GAPDH or β-actin. Primer sequences are listed in Supplementary Table 1.
(§4) Cells were either treated with trametinib (MEKi) or DMSO (control). Treatment period was 72 hours. CT-values were normalized to GAPDH, error bars represent standard deviation. All experiments were performed in triplicates (n=3/group). (FIG. 5b)

[5] = test system: AC004540.4 (TRASH) in MM415 cells; assay: MEK-inhibitor-induced upregulation, RT-qPCR; assay type: cell-based, human; conditions: 72 hours, vs DMSO
Protocol: as §3, §4

[6] = test system: AV5 primary melanoma cell line; assay: Cell viability assay (ATP quantitation); assay type: cell-based, human; conditions: 50 nM, 5 days (120 hrs), vs non-targeting control
Protocol: as §1, §2

[7] = test system: Hs852.T primary melanoma cell line; assay: Cell viability assay (ATP quantitation); assay type: cell-based, human; conditions: 50 nM, 5 days (120 hrs), vs non-targeting control
Protocol: as §1, §2

[8] = test system: Sk-Mel-2 melanoma cell line; assay: Cell viability assay (ATP quantitation); assay type: cell-based, human; conditions: 50 nM, 5 days (120 hrs), vs non-targeting control
Protocol: as §1, §2

[9] = test system: Sk-Mel-28 melanoma cell line; assay: Cell viability assay (ATP quantitation); assay type: cell-based, human; conditions: 50 nM, 5 days (120 hrs), vs non-targeting control
Protocol: as §1, §2

[10] = test system: VMM39 melanoma cell line; assay: Cell viability assay (ATP quantitation); assay type: cell-based, human; conditions: 50 nM, 5 days (120 hrs), vs non-targeting control
Protocol: as §1, §2

[11] = test system: WM1366 melanoma cell line; assay: Cell viability assay (ATP quantitation); assay type: cell-based, human; conditions: 50 nM, 5 days (120 hrs), vs non-targeting control
Protocol: as §1, §2

[12] = test system: WM3211 melanoma cell line; assay: Cell viability assay (ATP quantitation); assay type: cell-based, human; conditions: 50 nM, 5 days (120 hrs), vs non-targeting control
Protocol: as §1, §2

[13] = test system: WM3629 melanoma cell line; assay: Cell viability assay (ATP quantitation); assay type: cell-based, human; conditions: 50 nM, 5 days (120 hrs), vs non-targeting control
Protocol: as §1, §2

[14] = test system: A-172 Glioblastoma cell line; assay: Cell viability assay (ATP quantitation); assay type: cell-based; conditions: 50 nM, 5 days, vs non-targeting control
Protocol: as §1, §2

[15] = test system: A375 melanoma cell line; assay: Cell viability assay (ATP quantitation); assay type: cell-based; conditions: 50 nM, 5 days, vs non-targeting control
Protocol: as §1, §2

[16] = test system: AV4 melanoma cell line; assay: Cell viability assay (ATP quantitation); assay type: cell-based; conditions: 50 nM, 5 days, vs non-targeting control
Protocol: as §1, §2

[17] = test system: H1299 lung cancer cell line; assay: Cell viability assay (ATP quantitation); assay type: cell-based; conditions: 50 nM, 5 days, vs non-targeting control
Protocol: as §1, §2

[18] = test system: H2228 lung cancer cell line; assay: Cell viability assay (ATP quantitation); assay type: cell-based; conditions: 50 nM, 5 days, vs non-targeting control
Protocol: as §1, §2

[19] = test system: H82 lung cancer cell line; assay: Cell viability assay (ATP quantitation); assay type: cell-based; conditions: 50 nM, 5 days, vs non-targeting control
Protocol: as §1, §2

[20] = test system: H929 multiple myeloma cell line; assay: Cell viability assay (ATP quantitation); assay type: cell-based; conditions: 50 nM, 5 days, vs non-targeting control
Protocol: as §1, §2

[21] = test system: HCT116 colon carcinoma cell line; assay: Cell viability assay (ATP quantitation); assay type: cell-based; conditions: 50 nM, 5 days, vs non-targeting control
Protocol: as §1, §2

[22] = test system: Hs940.T melanoma cell line; assay: Cell viability assay (ATP quantitation); assay type: cell-based; conditions: 50 nM, 5 days, vs non-targeting control
Protocol: as §1, §2

[23] = test system: MM485 melanoma cell line; assay: Cell viability assay (ATP quantitation); assay type: cell-based; conditions: 50 nM, 5 days, vs non-targeting control
Protocol: as §1, §2

[24] = test system: SW1271 lung cancer cell line; assay: Cell viability assay (ATP quantitation); assay type: cell-based; conditions: 50 nM, 5 days, vs non-targeting control
Protocol: as §1, §2

[25] = test system: SW480 colon carcinoma cell line; assay: Cell viability assay (ATP quantitation); assay type: cell-based; conditions: 50 nM, 5 days, vs non-targeting control
Protocol: as §1, §2

[26] = test system: Sk-Mel-5 melanoma cell line; assay: Cell viability assay (ATP quantitation); assay type: cell-based; conditions: 50 nM, 5 days, vs non-targeting control
Protocol: as §1, §2

[27] = test system: Sk-N-AS Neuroblastoma cell line; assay: Cell viability assay (ATP quantitation); assay type: cell-based; conditions: 50 nM, 5 days, vs non-targeting control
Protocol: as §1, §2

[28] = test system: T98G Glioblastoma cell line; assay: Cell viability assay (ATP quantitation); assay type: cell-based; conditions: 50 nM, 5 days, vs non-targeting control
Protocol: as §1, §2

[29] = test system: U138-MG Glioblastoma cell line; assay: Cell viability assay (ATP quantitation); assay type: cell-based; conditions: 50 nM, 5 days, vs non-targeting control
Protocol: as §1, §2

[30] = test system: U20S osteosarcoma cell line; assay: Cell viability assay (ATP quantitation); assay type: cell-based; conditions: 50 nM, 5 days, vs non-targeting control
Protocol: as §1, §2

[31] = test system: U87-MG Glioblastoma cell line; assay: Cell viability assay (ATP quantitation); assay type: cell-based; conditions: 50 nM, 5 days, vs non-targeting control
Protocol: as §1, §2

[32] = test system: WM3060 melanoma cell line; assay: Cell viability assay (ATP quantitation); assay type: cell-based; conditions: 50 nM, 5 days, vs non-targeting control
Protocol: as §1, §2

[33] = test system: D04RM trametinib resistant melanoma cell line; assay: Cell viability assay (ATP quantitation); assay type: cell-based; conditions: 50 nM, 5 days, vs non-targeting control
Excerpt: (§5) Human melanoma cell line VMM39 was purchased from American Type Culture Collection (ATCC). Human melanoma cell lines D04, MM415, WM1366, WM3629, WM3211, Sk-Mel-2 and Sk-Mel-28 were a generous gift from Boris Bastian at the University of California, San Francisco. Primary human melanoma cell line Hs852.T was purchased from the Cell Culture Core Facility (CCCF) at the University of California, San Francisco. Primary human melanoma cell line AV5 was obtained from metastasis of a melanoma patient. All experimental protocols were approved by UCSF Human Research Protection Program Institutional Review Board (IRB #12-0948), all patients signed informed consent, and methods were carried out in accordance with relevant guidelines and regulations. Resistant cell lines DO4RM, MM415RM, Sk-Mel-2RM and WM3629RM were established as previously described. [Sanlorenzo, M. et al., The lincRNA MIRAT binds to IQGAPI and modulates the MAPK pathway in NRAS mutant melanoma. Sci Rep 8, 10902 (2018).] Primary human melanocytic cell lines (PHM) from infant foreskin of five healthy donors were available in our cell repository and pooled. Melanoma cell lines were maintained in RPMI 1640 media supplemented with 10% (vol/vol) heat inactivated fetal bovine serum. Melanocytes were maintained in M254 medium with HMGS supplements (1× final solution). All cell lines were incubated at 37° C. under 5% CO2.
as §1, §2

[34] = test system: MM415RM trametinib resistant melanoma cell line; assay: Cell viability assay (ATP quantitation); assay type: cell-based; conditions: 50 nM, 5 days, vs non-targeting control
Excerpt: as §5, §1, §2

[35] = test system: Sk-Mel-2-RM trametinib resistant melanoma cell line; assay: Cell viability assay (ATP quantitation); assay type: cell-based; conditions: 50 nM, 5 days, vs non-targeting control
Excerpt: as §5, §1, §2

[36] = test system: WM3629RM trametinib resistant melanoma cell line; assay: Cell viability assay (ATP quantitation); assay type: cell-based; conditions: 50 nM, 5 days, vs non-targeting control
Excerpt: as §5, §1, §2

Molecule: 5′-ACAAAGAGAGACAGGAAAUUU-3′ (chain 2 AUUUCCUGUCUCUCUUUGUUU; listed as RNA, chemistry not given here) [SEQ ID NO:45]
- cell viability decrease [1]: significant cell viability decrease
- cell viability decrease [2]: significant cell viability decrease
- cell viability decrease (RNAi screening) [3]: significant cell viability decrease

Molecule: CC(=O)Nc1cccc(-n2c(=O)n(C3CC3)c(=O)c3c(Nc4ccc(I)cc4F)n(C)c(=O)c(C)c32)c1 [trametinib]
- AC004540.4 (TRASH) upregulation ([4]; 20 nM MEKi): 3.2 fold
- AC004540.4 (TRASH) enrichment ([4]; 40 nM MEKi): 5.4 fold
- increase of AC004540.4 (TRASH)-expression ([5]; 20 nM MEKi): 0.31 fold
- increase of AC004540.4 (TRASH)-expression ([5]; second MEKi concentration (not given)): 0.36 fold

Molecule: AAGGAGGGTAAACGCT (chemistry not given here) [SEQ ID NO: 13, Antisense oligonucleotide targeting BX470102.3-008]
- cell viability decrease [6]: significant cell viability decrease
- cell viability decrease [1]: significant cell viability decrease
- cell viability decrease [7]: significant cell viability decrease
- cell viability decrease [2]: significant cell viability decrease
- cell viability decrease [8]: significant cell viability decrease
- cell viability decrease [9]: significant cell viability decrease
- cell viability decrease [10]: significant cell viability decrease
- cell viability decrease [11]: significant cell viability decrease
- cell viability decrease [12]: significant cell viability decrease
- cell viability decrease [13]: significant cell viability decrease
- cell viability decrease [14]: significant cell viability decrease
- cell viability decrease [15]: significant cell viability decrease
- cell viability decrease [16]: significant cell viability decrease
- cell viability decrease [17]: significant cell viability decrease
- cell viability decrease [18]: significant cell viability decrease
- cell viability decrease [19]: significant cell viability decrease
- cell viability decrease [20]: significant cell viability decrease
- cell viability decrease [21]: significant cell viability decrease
- cell viability decrease [22]: significant cell viability decrease
- cell viability decrease [23]: significant cell viability decrease
- cell viability decrease [24]: significant cell viability decrease
- cell viability decrease [25]: significant cell viability decrease
- cell viability decrease [26]: significant cell viability decrease
- cell viability decrease [27]: significant cell viability decrease
- cell viability decrease [28]: significant cell viability decrease
- cell viability decrease [29]: significant cell viability decrease
- cell viability decrease [30]: significant cell viability decrease
- cell viability decrease [31]: significant cell viability decrease
- cell viability decrease [32]: significant cell viability decrease
- cell viability decrease [33]: significant cell viability decrease
- cell viability decrease [34]: significant cell viability decrease
- cell viability decrease [35]: significant cell viability decrease
- cell viability decrease [36]: significant cell viability decrease
